# According to patent US20250154138A1, “Small Molecule IL-17A Modulators” (BeiGene, Ltd., priority 2022, published 2025):
# pIC50: −log10 of the molar value.
# Experiments:
# [1] = target: human IL-17A / human IL-17RA (Homo sapiens (Human), UniProt Q16552); assay: Human IL-17A biochemical assay (HTRF, blocking of IL-17A binding to IL-17RA); conditions: 0.4 nM IL-17A, 0.3 nM IL-17RA, max compound concentration 10 uM
# How it was run: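 Recombinant human IL-17A (0.4 nM) was pre-incubated with compound (top 10 uM, 2.7-fold, 10 points) for 3 h at room temperature in 20 mM HEPES pH 7.5, 50 mM NaCl, 0.1% BSA, 0.2 mM DTT, 0.005% Tween 20. IL-17RA (0.3 nM) was then added for 1 h, followed by anti-6His Tb and anti-human IgG-XL665 detection for 1 h; IC50 from four-parameter fit.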
# [2] = test system: IL-17-induced GROα secretion from HT-29 cells; assay: GROα release assay in human colorectal adenocarcinoma epithelial cell (HT-29, ELISA); type: cell-based; conditions: Homo sapiens, HT-29, 48 h, 10 ng/mL IL-17A, highest concentration 10 μM, read-out: Cellular assay HT29 cell/CXCL1 IC50
# How it was run: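 HT-29 cells were exposed 48 h at 37°C to IL-17A (final 10 ng/mL) preincubated 15 min with compound (4-fold dilutions, top 10 μM). Secreted GROα was quantified by ELISA against a standard curve, and IC50 obtained by four-parameter fitting.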
# Chain of human IL-17A / human IL-17RA (Q16552 24-155): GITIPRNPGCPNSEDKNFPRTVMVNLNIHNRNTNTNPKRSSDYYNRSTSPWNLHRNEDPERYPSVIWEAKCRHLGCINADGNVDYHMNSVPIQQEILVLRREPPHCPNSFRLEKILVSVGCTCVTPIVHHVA
Compound,pIC50 [1],pIC50 [2]
"Cn1nccc1C(=O)N[C@H](C(=O)Nc1ccc2c(c1)CC(N1CC3(CC3)CNC1=O)C2)C1CCCCC1 (stereo partly drawn) [Example 199, N-((1S)-1-cyclohexyl-2-oxo-2-((2-(6-oxo-5,7-diazaspiro[2.5]octan-5-yl)-2,3-dihydro-1H-inden-5-yl)amino)ethyl)-1-methyl-1H-pyrazole-5-carboxamide]",6.24,5.56
"CNC(=O)C1(N2C[C@@H](C(C)C)NC2=O)Cc2ccc(NC(=O)[C@@H](NC(=O)c3nonc3C)C3CCCCC3)cc2C1 (stereo partly drawn) [Example 40, N-((1S)-1-cyclohexyl-2-((2-((R)-4-isopropyl-2-oxoimidazolidin-1-yl)-2-(methylcarbamoyl)-2,3-dihydro-1H-inden-5-yl)amino)-2-oxoethyl)-4-methyl-1,2,5-oxadiazole-3-carboxamide]",7.60,6.84
"CNC(=O)C1(N2C[C@@H](C(C)C)NC2=O)Cc2ccc(NC(=O)C(NC(=O)c3ccnn3C)C3CCC(C)(C)CC3)cc2C1 (stereo partly drawn) [Example 87, N-(1-(4,4-dimethylcyclohexyl)-2-((2-((R)-4-isopropyl-2-oxoimidazolidin-1-yl)-2-(methylcarbamoyl)-2,3-dihydro-1H-inden-5-yl)amino)-2-oxoethyl)-1-methyl-1H-pyrazole-5-carboxamide]",7.44,6.45
"CC(C)[C@@H]1CN(CC2Cc3ccc(NC(=O)[C@@H](NC(=O)c4ccnn4C(C)C)C(C4CC4)C4CC4)cc3N2C)C(=O)N1 (stereo partly drawn) [Example 287, N-((2S)-1,1-dicyclopropyl-3-((2-(((R)-4-isopropyl-2-oxoimidazolidin-1-yl)methyl)-1-methylindolin-6-yl)amino)-3-oxopropan-2-yl)-1-isopropyl-1H-pyrazole-5-carboxamide]",7.21,6.65
"CNC(=O)C1(N2CC3(CC3)CNC2=O)Cc2ccc(NC(=O)[C@@H](NC(=O)c3ccc(C#N)n3C)C3CCCCC3)cc2C1 (stereo partly drawn) [Example 131, 5-cyano-N-((1S)-1-cyclohexyl-2-((2-(methylcarbamoyl)-2-(6-oxo-5,7-diazaspiro[2.5]octan-5-yl)-2,3-dihydro-1H-inden-5-yl)amino)-2-oxoethyl)-1-methyl-1H-pyrrole-2-carboxamide]",8.26,7.83
"CNC(=O)C1(N2C[C@@H](C(C)C)NC2=O)Cc2ccc(NC(=O)[C@@H](NC(=O)c3ccnn3CCO)C3CCCCC3)cc2C1 (stereo partly drawn) [Example 126, N-((1S)-1-cyclohexyl-2-((2-((R)-4-isopropyl-2-oxoimidazolidin-1-yl)-2-(methylcarbamoyl)-2,3-dihydro-1H-inden-5-yl)amino)-2-oxoethyl)-1-(2-hydroxyethyl)-1H-pyrazole-5-carboxamide]",7.14,5.40
"CNC(=O)C1(N2CC3(CC3)CNC2=O)Cc2ccc(NC(=O)[C@@H](NC(=O)c3ccnn3C(C)C)C(C3CC3)C3CC3)cc2C1 (stereo partly drawn) [Example 115, N-((2S)-1,1-dicyclopropyl-3-((2-(methylcarbamoyl)-2-(6-oxo-5,7-diazaspiro[2.5]octan-5-yl)-2,3-dihydro-1H-inden-5-yl)amino)-3-oxopropan-2-yl)-1-isopropyl-1H-pyrazole-5-carboxamide]",6.59,7.14
"CC[C@H]1CC[C@H]([C@H](NC(=O)c2ccnn2C)C(=O)Nc2ccc3c(c2)CC(COC)(N2CC4(CC4)CNC2=O)C3)CC1 (stereo partly drawn) [Example 165, N-((1S)-1-((1r,4S)-4-ethylcyclohexyl)-2-((2-(methoxymethyl)-2-(6-oxo-5,7-diazaspiro[2.5]octan-5-yl)-2,3-dihydro-1H-inden-5-yl)amino)-2-oxoethyl)-1-methyl-1H-pyrazole-5-carboxamide]",6.76,6.49
"CC[C@@H]1CN(C2(C(=O)NC)Cc3cc4nc([C@@H](NC(=O)c5nonc5C)C5CCCCC5)[nH]c4cc3C2)C(=O)N1 [Example 32, N-((1S)-cyclohexyl(6-((R)-4-ethyl-2-oxoimidazolidin-1-yl)-6-(methylcarbamoyl)-1,5,6,7-tetrahydroindeno[5,6-d]imidazol-2-yl)methyl)-4-methyl-1,2,5-oxadiazole-3-carboxamide]",7.21,6.87
"CNC(=O)C1(N2C[C@@H](C(C)C)NC2=O)Cc2ccc(NC(=O)[C@@H](NC(=O)c3ccnn3C)C3CCCC3)cc2C1 (stereo partly drawn) [Example 46, N-((1S)-1-cyclopentyl-2-((2-((R)-4-isopropyl-2-oxoimidazolidin-1-yl)-2-(methylcarbamoyl)-2,3-dihydro-1H-inden-5-yl)amino)-2-oxoethyl)-1-methyl-1H-pyrazole-5-carboxamide]",6.59,6.27
"Cc1nonc1C(=O)N[C@H](C(=O)Nc1ccc2c(c1)CC(C(=O)Nc1ccncc1Cl)(N1C[C@@H](C(C)C)NC1=O)C2)C(C1CC1)C1CC1 (stereo partly drawn) [Example 284, N-((2S)-1-((2-((3-chloropyridin-4-yl)carbamoyl)-2-((R)-4-isopropyl-2-oxoimidazolidin-1-yl)-2,3-dihydro-1H-inden-5-yl)amino)-3,3-dicyclopropyl-1-oxopropan-2-yl)-4-methyl-1,2,5-oxadiazole-3-carboxamide]",6.57,6.45
"CC[C@H]1CN(C2(C(=O)NC)Cc3ccc(NC(=O)[C@@H](NC(=O)c4ccnn4C)C4CCCCC4)cc3C2)C(=O)N1 (stereo partly drawn) [Example 18, N-((1S)-1-cyclohexyl-2-((2-((S)-4-ethyl-2-oxoimidazolidin-1-yl)-2-(methylcarbamoyl)-2,3-dihydro-1H-inden-5-yl)amino)-2-oxoethyl)-1-methyl-1H-pyrazole-5-carboxamide]",6.00,5.59
"Cc1nonc1C(=O)N[C@H](C(=O)Nc1ccc2c(c1)CC(C(=O)Nc1cccc(Cl)c1)(N1C[C@@H](C(C)C)NC1=O)C2)C(C1CC1)C1CC1 (stereo partly drawn) [Example 259, N-((2S)-1-((2-((3-chlorophenyl)carbamoyl)-2-((R)-4-isopropyl-2-oxoimidazolidin-1-yl)-2,3-dihydro-1H-inden-5-yl)amino)-3,3-dicyclopropyl-1-oxopropan-2-yl)-4-methyl-1,2,5-oxadiazole-3-carboxamide]",5.99,5.70
"Cc1nonc1C(=O)N[C@H](C(=O)Nc1ccc2c(c1)CC(c1nc(-c3ccccc3)c[nH]1)(N1CC3(CC3)CNC1=O)C2)C1CCC(F)(F)CC1 (stereo partly drawn) [Example 205, N-((1S)-1-(4,4-difluorocyclohexyl)-2-oxo-2-((2-(6-oxo-5,7-diazaspiro[2.5]octan-5-yl)-2-(4-phenyl-1H-imidazol-2-yl)-2,3-dihydro-1H-inden-5-yl)amino)ethyl)-4-methyl-1,2,5-oxadiazole-3-carboxamide]",6.61,6.71
"Cc1nonc1C(=O)N[C@H](C(=O)Nc1ccc2c(c1)CC(C(=O)Nc1cnccc1Cl)(N1C[C@@H](C(C)C)NC1=O)C2)C(C1CC1)C1CC1 (stereo partly drawn) [Example 274, N-((2S)-1-((2-((4-chloropyridin-3-yl)carbamoyl)-2-((R)-4-isopropyl-2-oxoimidazolidin-1-yl)-2,3-dihydro-1H-inden-5-yl)amino)-3,3-dicyclopropyl-1-oxopropan-2-yl)-4-methyl-1,2,5-oxadiazole-3-carboxamide]",7.37,7.17
"CC(C)[C@@H]1CN(C2(C(=O)N3CCC(O)C3)Cc3ccc(NC(=O)[C@@H](NC(=O)c4ccnn4C)C4CCCCC4)cc3C2)C(=O)N1 (stereo partly drawn) [Example 136, N-((1S)-1-cyclohexyl-2-((2-(3-hydroxypyrrolidine-1-carbonyl)-2-((R)-4-isopropyl-2-oxoimidazolidin-1-yl)-2,3-dihydro-1H-inden-5-yl)amino)-2-oxoethyl)-1-methyl-1H-pyrazole-5-carboxamide]",6.97,6.55
"Cc1nonc1C(=O)N[C@H](C(=O)Nc1ccc2c(c1)CC(c1cn3ccccc3n1)(N1CC3(CC3)CNC1=O)C2)C(C1CC1)C1CC1 (stereo partly drawn) [Example 222, N-((2S)-1,1-dicyclopropyl-3-((2-(imidazo[1,2-a]pyridin-2-yl)-2-(6-oxo-5,7-diazaspiro[2.5]octan-5-yl)-2,3-dihydro-1H-inden-5-yl)amino)-3-oxopropan-2-yl)-4-methyl-1,2,5-oxadiazole-3-carboxamide]",7.46,7.18
"CNC(=O)C1(N2C[C@@H](Cc3ccccc3)NC2=O)Cc2ccc(NC(=O)[C@@H](NC(=O)c3ccnn3C)C3CCCCC3)cc2C1 (stereo partly drawn) [Example 37, N-((1S)-2-((2-((R)-4-benzyl-2-oxoimidazolidin-1-yl)-2-(methylcarbamoyl)-2,3-dihydro-1H-inden-5-yl)amino)-1-cyclohexyl-2-oxoethyl)-1-methyl-1H-pyrazole-5-carboxamide]",6.95,5.83
"CNC(=O)C1(N2CC3(CC3)CNC2=O)Cc2ccc(NC(=O)C(NC(=O)c3ccnn3C)C3CCC(C(C)(F)F)CC3)cc2C1 (stereo not shown) [Example 143, N-(1-(4-(1,1-difluoroethyl)cyclohexyl)-2-((2-(methylcarbamoyl)-2-(6-oxo-5,7-diazaspiro[2.5]octan-5-yl)-2,3-dihydro-1H-inden-5-yl)amino)-2-oxoethyl)-1-methyl-1H-pyrazole-5-carboxamide]",6.79,6.11
"COCC1(N2CC(C)NC2=O)Cc2ccc(NC(=O)[C@@H](NC(=O)c3ccnn3C)C3CCCCC3)cc2C1 (stereo partly drawn) [Example 2, N-((1S)-1-cyclohexyl-2-((2-(methoxymethyl)-2-(4-methyl-2-oxoimidazolidin-1-yl)-2,3-dihydro-1H-inden-5-yl)amino)-2-oxoethyl)-1-methyl-1H-pyrazole-5-carboxamide]",5.96,5.59
